The values that follow are results of earlier work, collected in patent publication US7326683B2, “Treatment of membrane-associated diseases and disorders using lantibiotic containing compositions” (Molichem Medicines, Inc., priority 2004, dated 2008).

One data set relates to clatharin-coated vesicle. Conditions: clatharin-coated vesicle acidification; Stone et al., J. Biol. Chem. 259: 2701-2703 (1984).
For data set [1] the following is noted: aspirin used after the sentinel event, atherosclerotic heart disease (ASHD).

For the compound duramycin, in the data set with clatharin-coated vesicle, the “inhibition of the proton translocation facilitated by chloride translocation” value is recorded as “up to 50%”.
As for `CC(=O)Oc1ccccc1C(=O)O` [aspirin], in data set [1], the “decrease of risk of MI” value is on record as “approximately 50%”.
